PubChem BioAssay (NCI)
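GI50 = concentration required for 50% inhibition of growth. TGI: total growth inhibition.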

Experiments:
Assay in all cases: NCI anticancer screen, dose series, 384-well format
NCI-H522 lung = test system: NCI-H522 lung
ACHN renal = test system: ACHN renal
OVCAR-4 ovarian = test system: OVCAR-4 ovarian
A498 renal = test system: A498 renal
OVCAR-3 ovarian = test system: OVCAR-3 ovarian
SNB-75 CNS = test system: SNB-75 CNS
IGROV1 ovarian = test system: IGROV1 ovarian
CAKI-1 renal = test system: CAKI-1 renal
TK-10 renal = test system: TK-10 renal
NCI/ADR-RES ovarian = test system: NCI/ADR-RES ovarian
UACC-62 melanoma = test system: UACC-62 melanoma
NCI-H460 NSCLC = test system: NCI-H460 NSCLC
MOLT-4 leukemia = test system: MOLT-4 leukemia
HCT-116 colon = test system: HCT-116 colon
SK-MEL-5 melanoma = test system: SK-MEL-5 melanoma
HL-60(TB) leukemia = test system: HL-60(TB) leukemia
EKVX NSCLC = test system: EKVX NSCLC
HOP-62 NSCLC = test system: HOP-62 NSCLC
MDA-MB-231 breast = test system: MDA-MB-231 breast
UACC-257 melanoma = test system: UACC-257 melanoma
A549 NSCLC = test system: A549 NSCLC
MDA-MB-435 melanoma = test system: MDA-MB-435 melanoma
NCI-H23 lung = test system: NCI-H23 lung
OVCAR-8 ovarian = test system: OVCAR-8 ovarian
LOX IMVI melanoma = test system: LOX IMVI melanoma
T-47D breast = test system: T-47D breast
K-562 leukemia = test system: K-562 leukemia
PC-3 prostate = test system: PC-3 prostate
SNB-19 CNS = test system: SNB-19 CNS
SW-620 colon = test system: SW-620 colon
UO-31 renal = test system: UO-31 renal
DU-145 prostate = test system: DU-145 prostate
BT-549 breast = test system: BT-549 breast
786-0 renal = test system: 786-0 renal
SK-MEL-28 melanoma = test system: SK-MEL-28 melanoma
OVCAR-5 ovarian = test system: OVCAR-5 ovarian
NCI-H226 lung = test system: NCI-H226 lung
MCF7 breast = test system: MCF7 breast
MDA-MB-468 breast = test system: MDA-MB-468 breast
M14 melanoma = test system: M14 melanoma
CCRF-CEM leukemia = test system: CCRF-CEM leukemia
HT29 colon = test system: HT29 colon
RPMI-8226 leukemia = test system: RPMI-8226 leukemia
HS 578T breast = test system: HS 578T breast
SF-295 CNS = test system: SF-295 CNS
SN12C renal = test system: SN12C renal
RXF 393 renal = test system: RXF 393 renal
SK-OV-3 ovarian = test system: SK-OV-3 ovarian
SF-268 CNS = test system: SF-268 CNS
U251 glioblastoma = test system: U251 glioblastoma
KM12 colon = test system: KM12 colon
HCC-2998 colon = test system: HCC-2998 colon
COLO 205 colon = test system: COLO 205 colon
NCI-H322M lung = test system: NCI-H322M lung
MALME-3M melanoma = test system: MALME-3M melanoma
SF-539 CNS = test system: SF-539 CNS
HCT-15 colon = test system: HCT-15 colon
HOP-92 NSCLC = test system: HOP-92 NSCLC

CCOc1ccn(-c2ccc(F)cc2)c(=O)c1C(=O)Nc1ccc(Oc2ccnc(N)c2Cl)c(F)c1
GI50 (NCI-H522 lung): 4.35 µM
TGI (NCI-H522 lung): 15.7 µM
GI50 (ACHN renal): 10.8 µM
TGI (ACHN renal): > 100 µM
GI50 (OVCAR-4 ovarian): 8.05 µM
TGI (OVCAR-4 ovarian): > 100 µM
GI50 (A498 renal): 5.04 µM
TGI (A498 renal): 85.8 µM
GI50 (OVCAR-3 ovarian): 5.47 µM
TGI (OVCAR-3 ovarian): 27.3 µM
GI50 (SNB-75 CNS): 15.4 µM
TGI (SNB-75 CNS): 35.1 µM
GI50 (IGROV1 ovarian): 6.27 µM
TGI (IGROV1 ovarian): 40.5 µM
GI50 (CAKI-1 renal): 4.4 µM
TGI (CAKI-1 renal): 23.1 µM
GI50 (TK-10 renal): 16.2 µM
TGI (TK-10 renal): 95 µM
GI50 (NCI/ADR-RES ovarian): 10.1 µM
TGI (NCI/ADR-RES ovarian): 28.7 µM
GI50 (UACC-62 melanoma): 2.62 µM
TGI (UACC-62 melanoma): 12.4 µM
GI50 (NCI-H460 NSCLC): 3.35 µM
TGI (NCI-H460 NSCLC): 12.1 µM
GI50 (MOLT-4 leukemia): 1.44 µM
TGI (MOLT-4 leukemia): 2.9 µM
GI50 (HCT-116 colon): 4.85 µM
TGI (HCT-116 colon): 18.4 µM
GI50 (SK-MEL-5 melanoma): 2.99 µM
TGI (SK-MEL-5 melanoma): 12.2 µM
GI50 (HL-60(TB) leukemia): 5.02 µM
TGI (HL-60(TB) leukemia): 13.6 µM
GI50 (EKVX NSCLC): 9.83 µM
TGI (EKVX NSCLC): 58.6 µM
GI50 (HOP-62 NSCLC): 8.81 µM
TGI (HOP-62 NSCLC): 98.3 µM
GI50 (MDA-MB-231 breast): 9.78 µM
TGI (MDA-MB-231 breast): 49.3 µM
GI50 (UACC-257 melanoma): 6.47 µM
TGI (UACC-257 melanoma): 27.5 µM
GI50 (A549 NSCLC): 7.37 µM
TGI (A549 NSCLC): 26.3 µM
GI50 (MDA-MB-435 melanoma): 6.2 µM
TGI (MDA-MB-435 melanoma): 39.5 µM
GI50 (NCI-H23 lung): 2.64 µM
TGI (NCI-H23 lung): 24.6 µM
GI50 (OVCAR-8 ovarian): 14.3 µM
TGI (OVCAR-8 ovarian): 48.1 µM
GI50 (LOX IMVI melanoma): 5.57 µM
TGI (LOX IMVI melanoma): 18.2 µM
GI50 (T-47D breast): 1.67 µM
TGI (T-47D breast): 4.29 µM
GI50 (K-562 leukemia): 1.6 µM
TGI (K-562 leukemia): 3.62 µM
GI50 (PC-3 prostate): 4.15 µM
TGI (PC-3 prostate): 90.3 µM
GI50 (SNB-19 CNS): 22.4 µM
TGI (SNB-19 CNS): > 100 µM
GI50 (SW-620 colon): 12 µM
TGI (SW-620 colon): 28.9 µM
GI50 (UO-31 renal): 8.63 µM
TGI (UO-31 renal): 59.3 µM
GI50 (DU-145 prostate): 7.49 µM
TGI (DU-145 prostate): > 100 µM
GI50 (BT-549 breast): 8.41 µM
TGI (BT-549 breast): 27.8 µM
GI50 ([…]-0 renal): 33.4 µM
TGI (786-0 renal): > 100 µM
GI50 (SK-MEL-28 melanoma): 5.1 µM
TGI (SK-MEL-28 melanoma): 38.7 µM
GI50 (OVCAR-5 ovarian): 19.7 µM
TGI (OVCAR-5 ovarian): > 100 µM
GI50 (NCI-H226 lung): 9.81 µM
TGI (NCI-H226 lung): > 100 µM
GI50 (MCF7 breast): 11.2 µM
TGI (MCF7 breast): > 100 µM
GI50 (MDA-MB-468 breast): 3.97 µM
TGI (MDA-MB-468 breast): 10.3 µM
GI50 (M14 melanoma): 2.95 µM
TGI (M14 melanoma): 11.1 µM
GI50 (CCRF-CEM leukemia): 1.91 µM
TGI (CCRF-CEM leukemia): 3.51 µM
GI50 (HT29 colon): 4.42 µM
TGI (HT29 colon): 23.3 µM
GI50 (RPMI-8226 leukemia): 3.52 µM
TGI (RPMI-8226 leukemia): > 100 µM
GI50 (HS 578T breast): 5.13 µM
TGI (HS 578T breast): 21.2 µM
GI50 (SF-295 CNS): 3.81 µM
TGI (SF-295 CNS): 57.7 µM
GI50 (SN12C renal): 1.95 µM
TGI (SN12C renal): 46.2 µM
GI50 (RXF 393 renal): 4 µM
TGI (RXF 393 renal): 18.6 µM
GI50 (SK-OV-3 ovarian): 4.37 µM
TGI (SK-OV-3 ovarian): 20.9 µM
GI50 (SF-268 CNS): 2.01 µM
TGI (SF-268 CNS): 8.11 µM
GI50 (U251 glioblastoma): 16.3 µM
TGI (U251 glioblastoma): > 100 µM
GI50 (KM12 colon): 0.314 µM
TGI (KM12 colon): > 100 µM
GI50 (HCC-2998 colon): 24.3 µM
TGI (HCC-2998 colon): 68.1 µM
GI50 (COLO 205 colon): 2.06 µM
TGI (COLO 205 colon): 4.32 µM
GI50 (NCI-H322M lung): 29.3 µM
TGI (NCI-H322M lung): > 100 µM
GI50 (MALME-3M melanoma): 4.88 µM
TGI (MALME-3M melanoma): 20.7 µM
GI50 (SF-539 CNS): 5.67 µM
TGI (SF-539 CNS): 26.9 µM
GI50 (HCT-15 colon): 4.27 µM
TGI (HCT-15 colon): 27.7 µM
GI50 (HOP-92 NSCLC): 5.06 µM
TGI (HOP-92 NSCLC): 25.9 µM
